This passage reports IC50 results from patent US10414754B2, “Indolizine compounds, a process for their preparation and pharmaceutical compositions containing them” (LES LABORATOIRES SERVIER, priority 2013, dated 2019).

For one assay, the target named is T1, Bcl-2 protein (histag-Bcl-2, UniProtKB P10415) (Homo sapiens, UniProt P10415).
T1 construct: His tag
Description: Inhibition of Bcl-2 by the fluorescence polarisation technique. To be noted: fluorescence polarisation, 2 hours incubation; read-out: IC50 (nM) Bcl-2 FP. The class given is binding. In short, it runs like this: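 Fluorescence polarisation competition: His-tagged human Bcl-2 (2.50×10^−8 M final) was mixed with fluorescein-labelled peptide (1.00×10^−8 M final) and increasing compound concentrations. Buffer was 10 mM Hepes, 150 mM NaCl, 0.05% Tween20, pH 7.4. Polarisation was read after 2 h.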

For assay [1], the system named is RS4;11 leukaemia tumour line. Description: In vitro cytotoxicity (MTT) on RS4;11. The class given is cell-based. As to conditions: Homo sapiens; RS4;11 cells, 48 hours exposure. The protocol:
The cytotoxicity studies were carried out on the RS4;11 leukaemia tumour line.
The cells are distributed onto microplates and exposed to the test compounds for 48 hours.
The cell viability is then quantified by a colorimetric assay, the Microculture Tetrazolium Assay (Cancer Res., 1987, 47, 939-942).

Counter-ions that a name gives are not always drawn.

T1 sequence (P10415 whole entry): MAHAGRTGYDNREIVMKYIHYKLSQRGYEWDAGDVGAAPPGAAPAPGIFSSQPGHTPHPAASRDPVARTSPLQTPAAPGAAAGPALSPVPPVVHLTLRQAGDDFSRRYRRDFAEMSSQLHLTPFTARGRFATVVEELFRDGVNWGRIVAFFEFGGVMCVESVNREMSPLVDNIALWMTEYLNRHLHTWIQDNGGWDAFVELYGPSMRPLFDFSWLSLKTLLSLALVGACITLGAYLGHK

For `NCC[C@@H]1Cc2ccccc2CN1C(=O)c1cc2c(cc1-c1cc(C(=O)N(c3ccccc3)c3ccc(O)cc3)c3n1CCCC3)OCO2` [Example 37, 3-(6-{[(3S)-3-(2-Aminoethyl)-3,4-dihydroisoquinolin-2(1H)-yl]carbonyl}-1,3-benzodioxol-5-yl)-N-(4-hydroxyphenyl)-N-phenyl-5,6,7,8-tetrahydroindolizine-1-carboxamide hydrochloride], the IC50 on Bcl-2 protein was 2.9 nM; in assay [1], 24.7 nM.
